Drawing on ChEMBL document CHEMBL1201862, “PubChem BioAssay data set” (2004), this text covers EC50, IC50 and AC50 for 8 compounds.

Activity calls are given as the source filed them.

As usually defined, the EC50 is the concentration needed to bring the measured effect to its halfway point. The IC50 is the concentration at which inhibition is half-maximal. What is called AC50 is the concentration at which the activity in the assay is half-maximal.

Test [1] in a line: NIH-3T3 fibroblast cytotoxicity, dose response, cytotoxicity control, cell-based, fluorescence, Alamar Blue, secondary assay (AID 2327).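 Also: NIH-3T3 mouse fibroblasts cultured with fluconazole at 8 µg/mL.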 Format: functional. (In general: The colour change of resazurin is a common sign of viable cells or microbes.)
Test [2] in a line: C. albicans growth with fluconazole, confirmation, fluorescence, retest (AID 2467). Format: functional, cell-based.
For test [3], the target named is G-protein coupled receptor 55 (Homo sapiens, UniProt Q9Y2T6). Description: GPR55 antagonists blocking LPI-driven arrestin recruitment, primary screen, imaging, U2OS, beta-arrestin-GFP, LPI agonist (AID 2013).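 Also: antagonist potency measured as reduced agonist-driven arrestin aggregation.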 Format: functional.
Test [4] has as its target G-protein coupled receptor 35 (Homo sapiens, UniProt Q9HC97). In words: GPR35 antagonists blocking zaprinast-driven arrestin recruitment, primary screen, imaging, U2OS, beta-arrestin-GFP, zaprinast agonist (AID 2058).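 Also: antagonist potency meaning inhibition of agonist-induced arrestin redistribution.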 Format: functional. A general note: Activated receptors often draw arrestin, which recruitment assays turn into a signal.
In the next test the test system is INS1. Description: beta cell apoptosis inhibitors, cytokine rescue, dose response, luminescence, retest (AID 449756).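 Also: cell death triggered by IL-1 beta plus TNF-alpha plus IFN-gamma mixture; protective hits raise ATP signal compared with cytokine alone wells.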 Format: functional, cell-based. The note with it: Rattus norvegicus.
Test [5] deals with Scavenger receptor class B member 1 (Mus musculus, UniProt Q61009). Description: inhibitors of SR-BI mediated HDL lipid uptake, dose response, ldlA[mSR-BI] cells, fluorescence, cherry pick (AID 493194).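 Also: cellular uptake of fluorescent DiI-labeled HDL measured as cell fluorescence.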 In kind it is functional, cell-based.
A short description of test [6]: growth suppression of beta-catenin-knockout colon cells, dose response, cell-based, HCT116, human colon tumor (AID 1045).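 Also: HCT116 colon tumor cells with beta catenin knocked out; cells exposed to compound for 60 hours.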 In kind it is functional.
Test [7] can be described thus: growth suppression of PTEN-null colon cells, dose response, cell-based, HCT116 PTEN knockout (AID 1047).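 Also: HCT116 colon tumor cells with PTEN knocked out; cells exposed to compound for 60 hours before readout; potency for loss of cell viability measured by luminescence.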 Format: functional.
In the next test the target is T1, Protein skinhead-1 (Caenorhabditis elegans, UniProt P34707).
T1 sequence (P34707 whole entry): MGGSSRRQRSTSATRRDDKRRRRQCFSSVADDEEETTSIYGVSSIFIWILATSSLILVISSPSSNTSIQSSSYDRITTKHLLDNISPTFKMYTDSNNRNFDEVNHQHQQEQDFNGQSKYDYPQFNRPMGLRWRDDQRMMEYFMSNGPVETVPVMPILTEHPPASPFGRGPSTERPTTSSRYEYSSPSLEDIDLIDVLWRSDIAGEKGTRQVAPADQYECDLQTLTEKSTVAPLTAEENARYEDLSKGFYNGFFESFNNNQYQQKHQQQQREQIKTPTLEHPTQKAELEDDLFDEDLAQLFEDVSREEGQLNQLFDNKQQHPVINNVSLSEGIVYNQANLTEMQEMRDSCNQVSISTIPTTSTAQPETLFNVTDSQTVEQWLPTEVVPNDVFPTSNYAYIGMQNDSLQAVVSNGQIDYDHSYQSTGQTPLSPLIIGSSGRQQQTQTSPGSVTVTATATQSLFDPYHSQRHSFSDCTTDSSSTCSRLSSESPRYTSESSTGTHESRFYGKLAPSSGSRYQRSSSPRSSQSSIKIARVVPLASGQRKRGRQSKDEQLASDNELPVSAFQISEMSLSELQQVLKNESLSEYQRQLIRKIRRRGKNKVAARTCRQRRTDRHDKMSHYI
Format: functional.

The target of test [8] is T2, Ubiquitin-conjugating enzyme E2 N (Homo sapiens, UniProt P61088).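 Also: Dose-response confirmation in a TR-FRET assay detecting UBC13-driven polyubiquitin chain formation, inhibition measured.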
T2 sequence (P61088 whole entry): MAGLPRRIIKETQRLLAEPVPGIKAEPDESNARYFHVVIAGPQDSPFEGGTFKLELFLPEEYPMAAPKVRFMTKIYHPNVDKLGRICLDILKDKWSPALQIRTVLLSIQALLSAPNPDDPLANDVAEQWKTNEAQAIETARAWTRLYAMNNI
In kind it is functional.

The target of test [9] is Acyl-homoserine lactone acylase PvdQ (Pseudomonas aeruginosa (strain LESB58), UniProt Q9I194). Description: P. aeruginosa PvdQ acylase inhibitors, dose response, biochemical, fluorescence, plate reader and imaging, cherry-picks (AID 493231).
In test [10] the target is T3, Tyrosine-protein phosphatase non-receptor type 7 (Homo sapiens, UniProt P35236).
T3 sequence (P35236 whole entry): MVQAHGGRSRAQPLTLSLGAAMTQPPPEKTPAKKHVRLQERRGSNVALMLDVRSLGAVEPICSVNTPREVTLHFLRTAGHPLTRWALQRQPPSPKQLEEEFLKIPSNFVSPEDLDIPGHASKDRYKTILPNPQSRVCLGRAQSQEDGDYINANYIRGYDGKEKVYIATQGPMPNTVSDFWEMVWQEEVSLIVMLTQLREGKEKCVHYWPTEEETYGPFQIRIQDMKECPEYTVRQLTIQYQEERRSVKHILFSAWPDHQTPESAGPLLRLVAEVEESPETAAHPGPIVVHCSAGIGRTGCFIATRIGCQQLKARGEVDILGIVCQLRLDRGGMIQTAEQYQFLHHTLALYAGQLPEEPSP
In kind it is functional.

Test [11] concerns the target Glyceraldehyde-3-phosphate dehydrogenase (Homo sapiens, UniProt P04406).
For test [12], the target named is T4, Dual specificity protein phosphatase 6 (Rattus norvegicus, UniProt Q64346).
T4 sequence (Q64346 whole entry): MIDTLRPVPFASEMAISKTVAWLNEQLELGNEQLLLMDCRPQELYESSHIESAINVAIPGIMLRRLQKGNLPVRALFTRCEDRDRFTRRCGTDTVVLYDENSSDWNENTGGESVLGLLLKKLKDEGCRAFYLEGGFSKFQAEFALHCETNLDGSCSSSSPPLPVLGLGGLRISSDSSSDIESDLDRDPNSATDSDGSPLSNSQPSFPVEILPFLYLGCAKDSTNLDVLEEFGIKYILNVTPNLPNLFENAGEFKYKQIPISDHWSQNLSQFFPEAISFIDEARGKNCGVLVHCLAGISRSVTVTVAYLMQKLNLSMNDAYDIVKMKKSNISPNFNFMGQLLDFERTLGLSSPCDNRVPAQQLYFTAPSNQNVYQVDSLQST

Test [13] addresses T4, Dual specificity protein phosphatase 6. In kind it is functional.
Test [14] deals with T5, Voltage-gated N-type calcium channel alpha-1B subunit/Amyloid beta A4 precursor protein-binding family A member 1 (Homo sapiens, UniProt Q00975+Q02410). In words: disruptors of Mint-PDZ/N-type channel peptide interaction – biochemical, HTRF, SAR follow-up (AID 2489). Format: functional. For orientation: TR-FRET usually uses a lanthanide donor and a delayed reading to cut background.

In test [15] the target is Glucose-6-phosphate 1-dehydrogenase (Homo sapiens, UniProt P11413). Description: human G6PD enzyme inhibitors, dose response, selectivity assay for P. falciparum G6PD inhibitor project, biochemical, fluorescence (AID 504792). Format: functional.
For test [16], the target named is T5, Voltage-gated N-type calcium channel alpha-1B subunit/Amyloid beta A4 precursor protein-binding family A member 1. In kind it is protein assay.
Test [17] shares this target. In words: disruptors of Mint-PDZ/N-type channel peptide interaction – biochemical, HTRF, set 2, SAR follow-up (AID 434980). Format: functional.
Test [18] has the same target. Format: protein assay. The source holds these as a separate data set.
The target of another test is Bcl-2-like protein 10 (Homo sapiens, UniProt Q9HD36). In words: displacers of TR3 peptide from Bcl-B, primary screen, selectivity assay for Bfl-1 inhibitor project, biochemical, fluorescence polarization, FITC-TR3 peptide (AID 748).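 Also: fluorescence polarization from a fluorescein-labelled TR3 peptide binding purified Bcl-B.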
The target in test [19] is T6, Histone-lysine N-methyltransferase NSD2 (Homo sapiens, UniProt O96028).
T6 sequence (O96028 whole entry): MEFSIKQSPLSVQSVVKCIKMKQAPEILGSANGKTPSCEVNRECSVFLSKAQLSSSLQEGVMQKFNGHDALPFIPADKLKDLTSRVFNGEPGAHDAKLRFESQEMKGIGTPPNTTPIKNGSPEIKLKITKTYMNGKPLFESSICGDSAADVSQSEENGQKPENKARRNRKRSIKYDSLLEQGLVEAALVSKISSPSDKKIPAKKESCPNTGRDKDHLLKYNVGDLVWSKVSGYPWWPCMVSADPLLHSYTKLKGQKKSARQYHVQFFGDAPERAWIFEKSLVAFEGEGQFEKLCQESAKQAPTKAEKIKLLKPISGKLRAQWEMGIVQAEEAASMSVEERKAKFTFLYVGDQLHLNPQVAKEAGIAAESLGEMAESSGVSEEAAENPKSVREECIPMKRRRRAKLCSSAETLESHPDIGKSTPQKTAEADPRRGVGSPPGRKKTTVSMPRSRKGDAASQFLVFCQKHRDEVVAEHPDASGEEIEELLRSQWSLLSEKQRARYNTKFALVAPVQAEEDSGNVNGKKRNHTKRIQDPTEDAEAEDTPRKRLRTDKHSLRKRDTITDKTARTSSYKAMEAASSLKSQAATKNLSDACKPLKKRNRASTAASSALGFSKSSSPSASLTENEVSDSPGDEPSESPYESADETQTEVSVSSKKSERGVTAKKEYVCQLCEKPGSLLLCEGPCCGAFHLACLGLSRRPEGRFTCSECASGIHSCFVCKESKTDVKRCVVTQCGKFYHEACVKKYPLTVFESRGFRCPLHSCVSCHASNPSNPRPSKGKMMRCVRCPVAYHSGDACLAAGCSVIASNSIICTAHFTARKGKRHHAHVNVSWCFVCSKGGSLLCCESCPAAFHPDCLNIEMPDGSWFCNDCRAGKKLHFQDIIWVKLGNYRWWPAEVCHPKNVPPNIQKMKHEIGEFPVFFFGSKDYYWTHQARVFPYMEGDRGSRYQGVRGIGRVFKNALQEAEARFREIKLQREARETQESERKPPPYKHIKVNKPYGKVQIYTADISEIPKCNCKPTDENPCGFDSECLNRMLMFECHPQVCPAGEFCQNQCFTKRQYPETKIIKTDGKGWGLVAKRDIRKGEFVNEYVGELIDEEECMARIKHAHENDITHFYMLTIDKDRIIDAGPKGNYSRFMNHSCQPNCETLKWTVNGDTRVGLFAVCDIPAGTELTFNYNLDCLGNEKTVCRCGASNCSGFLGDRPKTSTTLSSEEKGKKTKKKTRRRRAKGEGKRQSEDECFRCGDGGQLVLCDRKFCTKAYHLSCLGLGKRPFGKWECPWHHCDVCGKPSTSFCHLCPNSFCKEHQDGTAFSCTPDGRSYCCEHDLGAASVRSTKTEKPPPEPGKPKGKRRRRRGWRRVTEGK
Format: biochemical.

For test [20], the target named is Bifunctional protein GlmU (Mycobacterium tuberculosis, UniProt P9WMN3). In words: Inhibitors of Mycobacterial Glucosamine-1-phosphate acetyl transferase (GlmU). Secondary screen. More on the design: species or system Mycobacterium tuberculosis H37Rv.
The target of test [21] is T7, Carboxy-terminal domain RNA polymerase II polypeptide A small phosphatase 1 (Homo sapiens, UniProt Q9GZU7).
T7 sequence (Q9GZU7 whole entry): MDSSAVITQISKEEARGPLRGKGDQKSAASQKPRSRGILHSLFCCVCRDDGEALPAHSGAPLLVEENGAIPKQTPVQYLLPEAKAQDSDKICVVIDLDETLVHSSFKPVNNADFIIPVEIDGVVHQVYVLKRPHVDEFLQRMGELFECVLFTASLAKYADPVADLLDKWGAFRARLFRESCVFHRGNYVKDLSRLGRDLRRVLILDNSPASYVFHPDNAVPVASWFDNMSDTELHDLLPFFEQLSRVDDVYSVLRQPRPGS
In words: inhibitors of CTDSP1, concentration-response testing, biochemical assay, absorbance-based, actives from ultra-high-throughput screening (AID 540297). Format: functional.

In a further test the test system is HeLa. Description: HeLa cell cytotoxicity, dose response, cytotoxicity control, 24 h, cherry-picked samples (AID 504726).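 Also: potency for cytotoxicity as loss of luminescence signal.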 Format: functional, cell-based. The note with it: Homo sapiens.
For test [22], the target named is Protein phosphatase methylesterase 1 (Homo sapiens, UniProt Q9Y570). Description: PME-1 inhibitor potency by in-gel ABPP, dose response, selectivity assay for PME-1 inhibitor project, cell lysate, mouse brain cytosol, FP-rhodamine, panel member PME-1 Assay Panel member description: Inhibition of endogenously expressed PME-1 (AID 2366).

T5 sequence (Q00975 whole entry): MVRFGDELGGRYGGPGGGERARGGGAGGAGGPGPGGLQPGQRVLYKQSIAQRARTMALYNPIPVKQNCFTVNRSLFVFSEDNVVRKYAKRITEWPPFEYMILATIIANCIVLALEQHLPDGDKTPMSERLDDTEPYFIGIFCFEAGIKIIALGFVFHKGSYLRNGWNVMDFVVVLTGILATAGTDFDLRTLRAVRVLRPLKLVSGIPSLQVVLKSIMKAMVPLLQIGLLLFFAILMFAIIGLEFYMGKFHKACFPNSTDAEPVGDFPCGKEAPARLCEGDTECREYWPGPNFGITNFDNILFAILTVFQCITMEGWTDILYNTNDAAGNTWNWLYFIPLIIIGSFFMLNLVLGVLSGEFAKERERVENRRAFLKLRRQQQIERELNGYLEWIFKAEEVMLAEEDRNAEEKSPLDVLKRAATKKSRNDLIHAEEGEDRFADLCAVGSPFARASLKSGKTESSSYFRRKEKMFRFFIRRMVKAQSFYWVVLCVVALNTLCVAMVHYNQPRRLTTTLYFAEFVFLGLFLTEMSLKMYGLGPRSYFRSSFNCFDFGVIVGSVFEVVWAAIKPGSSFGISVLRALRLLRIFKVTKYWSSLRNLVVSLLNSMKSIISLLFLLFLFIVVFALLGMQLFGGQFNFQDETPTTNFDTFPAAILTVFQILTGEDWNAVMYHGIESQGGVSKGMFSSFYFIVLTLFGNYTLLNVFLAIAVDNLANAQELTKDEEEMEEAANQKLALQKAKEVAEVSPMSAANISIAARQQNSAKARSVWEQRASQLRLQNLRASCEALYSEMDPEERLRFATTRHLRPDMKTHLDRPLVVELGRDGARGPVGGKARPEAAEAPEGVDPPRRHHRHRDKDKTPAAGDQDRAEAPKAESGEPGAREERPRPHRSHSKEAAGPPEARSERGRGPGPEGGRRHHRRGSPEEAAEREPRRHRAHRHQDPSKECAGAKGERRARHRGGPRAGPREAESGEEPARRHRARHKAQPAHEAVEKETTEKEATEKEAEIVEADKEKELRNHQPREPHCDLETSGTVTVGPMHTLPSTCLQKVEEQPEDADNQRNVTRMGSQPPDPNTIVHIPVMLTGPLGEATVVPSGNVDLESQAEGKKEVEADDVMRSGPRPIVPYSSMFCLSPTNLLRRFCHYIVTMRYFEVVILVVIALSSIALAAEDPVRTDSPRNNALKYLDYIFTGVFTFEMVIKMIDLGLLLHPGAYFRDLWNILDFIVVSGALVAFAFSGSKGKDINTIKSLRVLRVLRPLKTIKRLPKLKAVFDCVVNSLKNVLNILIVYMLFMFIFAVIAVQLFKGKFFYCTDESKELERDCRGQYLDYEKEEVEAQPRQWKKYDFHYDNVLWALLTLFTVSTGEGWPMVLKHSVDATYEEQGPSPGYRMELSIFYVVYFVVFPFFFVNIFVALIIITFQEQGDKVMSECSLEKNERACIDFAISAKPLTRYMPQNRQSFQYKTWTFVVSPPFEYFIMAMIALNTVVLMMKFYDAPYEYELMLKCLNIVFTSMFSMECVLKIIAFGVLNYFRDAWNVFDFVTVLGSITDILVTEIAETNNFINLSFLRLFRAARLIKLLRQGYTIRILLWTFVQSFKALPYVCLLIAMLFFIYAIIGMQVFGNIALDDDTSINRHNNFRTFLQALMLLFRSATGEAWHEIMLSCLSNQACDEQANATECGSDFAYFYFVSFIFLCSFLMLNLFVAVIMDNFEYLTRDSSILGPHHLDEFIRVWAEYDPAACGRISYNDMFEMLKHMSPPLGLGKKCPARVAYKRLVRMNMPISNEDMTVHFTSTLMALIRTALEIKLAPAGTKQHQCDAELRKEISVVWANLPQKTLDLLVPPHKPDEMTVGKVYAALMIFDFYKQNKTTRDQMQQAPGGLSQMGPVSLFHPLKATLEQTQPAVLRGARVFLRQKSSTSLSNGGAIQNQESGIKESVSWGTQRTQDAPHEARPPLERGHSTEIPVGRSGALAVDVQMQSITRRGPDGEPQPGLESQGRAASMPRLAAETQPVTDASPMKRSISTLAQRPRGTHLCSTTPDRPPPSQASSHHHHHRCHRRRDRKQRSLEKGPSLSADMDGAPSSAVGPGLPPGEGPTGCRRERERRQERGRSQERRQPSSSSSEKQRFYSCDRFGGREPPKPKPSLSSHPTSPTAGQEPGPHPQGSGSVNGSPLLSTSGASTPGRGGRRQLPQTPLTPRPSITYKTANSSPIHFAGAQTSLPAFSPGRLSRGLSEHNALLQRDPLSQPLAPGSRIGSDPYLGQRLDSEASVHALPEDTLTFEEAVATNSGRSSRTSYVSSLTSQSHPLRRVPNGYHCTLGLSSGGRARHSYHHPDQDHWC
T5 sequence (Q02410 whole entry): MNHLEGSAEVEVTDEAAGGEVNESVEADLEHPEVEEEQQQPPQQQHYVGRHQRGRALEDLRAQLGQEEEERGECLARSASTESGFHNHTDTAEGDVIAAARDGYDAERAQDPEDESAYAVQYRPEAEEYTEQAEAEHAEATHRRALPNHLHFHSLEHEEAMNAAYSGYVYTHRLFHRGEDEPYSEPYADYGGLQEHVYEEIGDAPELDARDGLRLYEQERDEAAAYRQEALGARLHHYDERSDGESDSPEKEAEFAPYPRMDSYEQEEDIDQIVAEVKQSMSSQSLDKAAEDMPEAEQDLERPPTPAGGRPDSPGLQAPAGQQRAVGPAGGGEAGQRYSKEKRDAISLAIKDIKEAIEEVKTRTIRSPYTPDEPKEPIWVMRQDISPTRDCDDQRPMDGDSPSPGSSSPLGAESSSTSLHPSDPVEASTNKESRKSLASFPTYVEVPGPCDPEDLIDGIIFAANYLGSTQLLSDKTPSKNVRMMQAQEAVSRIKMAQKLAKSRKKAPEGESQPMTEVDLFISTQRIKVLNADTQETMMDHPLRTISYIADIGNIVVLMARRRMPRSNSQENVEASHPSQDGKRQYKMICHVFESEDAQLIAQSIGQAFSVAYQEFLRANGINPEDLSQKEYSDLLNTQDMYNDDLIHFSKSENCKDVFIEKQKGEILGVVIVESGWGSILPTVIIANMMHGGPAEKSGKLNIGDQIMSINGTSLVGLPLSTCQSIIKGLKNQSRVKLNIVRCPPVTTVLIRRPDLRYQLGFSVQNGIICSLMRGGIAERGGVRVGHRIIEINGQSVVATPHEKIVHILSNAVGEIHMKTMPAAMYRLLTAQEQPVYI
Sequence of Glyceraldehyde-3-phosphate dehydrogenase (P04406 whole entry): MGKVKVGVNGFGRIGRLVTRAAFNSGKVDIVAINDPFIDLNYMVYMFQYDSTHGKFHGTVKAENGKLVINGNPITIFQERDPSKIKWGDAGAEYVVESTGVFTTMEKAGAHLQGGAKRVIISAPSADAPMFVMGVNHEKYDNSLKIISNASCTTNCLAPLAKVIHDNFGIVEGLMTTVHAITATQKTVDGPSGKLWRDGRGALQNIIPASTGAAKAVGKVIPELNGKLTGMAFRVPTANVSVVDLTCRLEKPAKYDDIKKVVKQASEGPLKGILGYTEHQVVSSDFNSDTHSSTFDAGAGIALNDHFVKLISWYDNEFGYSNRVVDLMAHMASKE
Sequence of G-protein coupled receptor 55 (Q9Y2T6 whole entry): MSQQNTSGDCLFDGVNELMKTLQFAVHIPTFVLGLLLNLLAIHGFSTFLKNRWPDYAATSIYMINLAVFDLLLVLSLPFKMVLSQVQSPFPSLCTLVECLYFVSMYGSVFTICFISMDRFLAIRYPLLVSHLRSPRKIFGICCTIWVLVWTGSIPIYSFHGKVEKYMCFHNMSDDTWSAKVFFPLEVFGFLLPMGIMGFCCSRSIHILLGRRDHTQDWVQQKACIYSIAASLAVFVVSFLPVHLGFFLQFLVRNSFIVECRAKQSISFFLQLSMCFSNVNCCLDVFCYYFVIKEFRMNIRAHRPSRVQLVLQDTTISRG
Sequence of Acyl-homoserine lactone acylase PvdQ (Q9I194 24-193 limits assumed): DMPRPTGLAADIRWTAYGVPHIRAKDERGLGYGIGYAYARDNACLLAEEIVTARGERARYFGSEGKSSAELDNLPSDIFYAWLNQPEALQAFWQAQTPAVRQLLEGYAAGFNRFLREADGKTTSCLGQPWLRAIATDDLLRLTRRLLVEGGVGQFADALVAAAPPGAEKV
Sequence of Acyl-homoserine lactone acylase PvdQ (Q9I194 217-762 limits assumed): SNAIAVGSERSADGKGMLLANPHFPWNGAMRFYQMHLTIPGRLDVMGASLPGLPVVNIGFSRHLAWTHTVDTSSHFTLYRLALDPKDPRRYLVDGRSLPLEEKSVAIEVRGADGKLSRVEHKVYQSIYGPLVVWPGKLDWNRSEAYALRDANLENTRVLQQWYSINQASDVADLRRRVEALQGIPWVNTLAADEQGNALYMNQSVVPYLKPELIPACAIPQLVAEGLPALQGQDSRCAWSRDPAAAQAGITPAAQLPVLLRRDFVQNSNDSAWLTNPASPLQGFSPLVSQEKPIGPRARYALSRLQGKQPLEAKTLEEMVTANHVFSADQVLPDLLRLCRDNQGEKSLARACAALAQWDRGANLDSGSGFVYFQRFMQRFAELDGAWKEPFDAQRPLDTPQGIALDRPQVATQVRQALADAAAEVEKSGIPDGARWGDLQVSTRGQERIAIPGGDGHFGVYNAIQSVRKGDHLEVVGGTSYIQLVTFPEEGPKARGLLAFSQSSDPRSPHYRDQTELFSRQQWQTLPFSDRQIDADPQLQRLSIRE
Sequence of Glucose-6-phosphate 1-dehydrogenase (P11413 whole entry): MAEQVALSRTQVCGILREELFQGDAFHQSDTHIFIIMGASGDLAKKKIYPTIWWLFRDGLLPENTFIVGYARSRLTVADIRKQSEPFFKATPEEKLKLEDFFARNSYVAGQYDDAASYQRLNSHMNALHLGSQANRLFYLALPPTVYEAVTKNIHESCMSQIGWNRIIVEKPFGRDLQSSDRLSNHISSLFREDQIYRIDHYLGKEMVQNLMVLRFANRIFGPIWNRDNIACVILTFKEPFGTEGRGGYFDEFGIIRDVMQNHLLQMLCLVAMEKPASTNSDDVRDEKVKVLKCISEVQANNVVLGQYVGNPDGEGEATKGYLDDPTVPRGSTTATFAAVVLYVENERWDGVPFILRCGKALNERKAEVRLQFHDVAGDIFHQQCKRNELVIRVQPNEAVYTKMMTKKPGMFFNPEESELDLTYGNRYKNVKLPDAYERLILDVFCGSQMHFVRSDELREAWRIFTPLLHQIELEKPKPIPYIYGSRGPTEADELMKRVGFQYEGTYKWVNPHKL

Consider `COc1ccc(C)cc1Nc1n[n+](-c2ccccc2)c(-c2ccc(N(C)C)cc2)s1`, for which the EC50 is > 150 µM (inactive) in test [1] and 2.27 µM (active) in test [2]. Further, the IC50 in [3] is 3.42 µM (active); in test [4], 3.54 µM (active). For the same compound, in the test on INS1, the AC50 is 2.53 µM (active).
Consider `COc1cc(C2CC(=O)c3c([nH]c(C(=O)OCCOC(C)C)c3C)C2)cc(OC)c1OC` (stereo unspecified), for which, in test [5], the concentration at half-maximal activity (AC50) is 18 µM (active). Further, the EC50 in [6] was 31 µM (active); in test [7], 38.4 µM (active).
For the compound `Cc1cccn2c(=O)c(C=O)c(N3CCCCCC3)nc12`, the IC50 was > 100 µM (inactive) at Protein skinhead-1 and > 20 µM (inactive) in test [8]. Also, in [9], the concentration at half-maximal activity (AC50) was 24.8 µM (active).
`CCn1c(=O)n(CC)c(=O)n([C@@H](Cc2ccccc2)C(=O)O)c1=O`: the IC50 was > 100 µM (not active) in [10], > 100 µM (not active) in test [11], > 100 µM (inactive) in [12] and > 100 µM (inactive) in test [13].
As for `Cc1ccc(/C=C/C(=O)NCc2ccc(S(N)(=O)=O)cc2)o1`, the IC50 in test [14] was 3.34 µM (active); in [15], > 80 µM (inactive); in [16], 8.37 µM (active); in test [17], 4.23 µM (active); in test [18], 3.12 µM (active).
Take `O=C(c1coc(=O)c(Br)c1)N1CCOCC1`: the values for the IC50 (at Bcl-2-like protein 10; in test [20]; in test [21]) were 34 µM (active), 88.3 µM (active) and 7.34 µM (active), respectively. The AC50 in test [19] is 12.1 µM (active).
Regarding `Brc1ccc(-c2noc(COc3ccc4c(c3)CCC4)n2)o1`, in the test with HeLa, the AC50 was 337 µM (active).
On to `CCCCS(=O)(=O)n1cccc1/C=C(\C#N)S(C)(=O)=O`, for which the IC50 in [22] is > 20 µM (inactive).
